Assay results taken from patent US9994581B2, “Bromodomain inhibitors” (AbbVie Inc., priority 2013, dated 2018).
Like-named read-outs stand apart in the source and are kept apart here.

Assays:
[1] = test system: breast cancer cell line MX-1; assay: MX-1 cell line proliferation assay (3-day, Cell Titer Glo); type: cell-based; details: 72 hours, read-out: Cellular proliferation: EC50
Experimental: The impact of compounds of the Examples on cancer cell proliferation was determined using the breast cancer cell line MX-1 (ATCC) in a 3-day proliferation assay and the data are reported in Table 1. […] For compound testing, MX-1 cells were plated in 96-well black bottom plates at a density of 5000 cells/well in 90 μL of culture media and incubated at 37° overnight to allow cell adhesion and spreading. Compound dilution series were prepared in DMSO via a 3-fold serial dilution from 3 mM to 0.1 μM. The DMSO dilution series were then diluted 1:100 in phosphate buffered saline, and 10 μL of the resulted solution were added to the appropriate wells of the MX-1 cell plate. The final compound concentrations in the wells were 3, 1, 0.3, 0.1, 0.03, 0.01, 0.003, 0.001, 0.0003, and 0.0001 μM, or 1, 0.3, 0.1, 0.03, 0.01, 0.003, 0.001, 0.0003, 0.0001, and 0.00003 μM.
Luminescence readings from the Cell Titer Glo assay were normalized to the DMSO treated cells and analyzed using the GraphPad Prism software with sigmoidal curve fitting to obtain EC50s.

BRD4 (BDI-BDII_K57-K550) = BRD4 (BDI-BDII_K57-K550) (Homo sapiens, UniProt O60885); assay: TR-FRET bromodomain binding assay; details: His-tagged tandem bromodomain, Alexa647-labeled probe; Ki calculated from IC50s, probe Kd and probe concentration
Experimental: A time-resolved fluorescence resonance energy transfer (TR-FRET) assay was used to determine the affinities of compounds of the Examples listed in Table 1 for the tandem domain of bromodomain BRD4. […] An Alexa647-labeled BET-inhibitor was used as the fluorescent probe in the assay.
TR-FRET data were normalized to the means of 24 no-compound controls (“high”) and 8 controls containing 1 μM un-labeled probe (“low”). Percent inhibition was plotted as a function of compound concentration and the data were fit with the 4 parameter logistic equation to obtain IC50s. Inhibition constants (Ki) were calculated from the IC50s, probe Kd and probe concentration. Typical Z′ values were between 0.65 and 0.75.

[2] = test system: LPS induced IL-6 (Interleukin-6) production; assay: LPS (lipopolysaccharide) induced IL-6 production mouse assay; details: oral administration one hour before LPS 2.5 mg/kg i.p., serum IL-6 2 hours after LPS, p < 0.05

| EC50 ([1]; MX-1 cells) | Ki (BRD4 (BDI-BDII_K57-K550)) | EC50 ([1]; Homo sapiens, MX1, MX-1 cells) | Compound | Inhibition of LPS induced IL-6 production, % inhibition ([2]; CD1 mouse strain) | Inhibition of LPS induced IL-6 production, % inhibition ([2]; SCID mouse strain) |
| --- | --- | --- | --- | --- | --- |
|  | 15.6 nM | 142 nM | CC(=O)Nc1ccc2c(c1)-c1cn(C)c(=O)cc1OCCN(C(C)=O)Cc1cc(Cl)ccc1O2 [Example B-2, N-(8-acetyl-11-chloro-2-methyl-3-oxo-2,3,6,7,8,9-hexahydrodibenzo[f,i]pyrido[3,4-k][1,8,4]dioxazacyclododecin-17-yl)acetamide] |  |  |
|  | 172 nM | > 1000 nM | Cn1cc2c(cc1=O)OCCNC(=O)c1cc(Cl)ccc1Oc1ccc(N)cc1-2 [Example B-3, 17-amino-11-chloro-2-methyl-7,8-dihydrodibenzo[f,i]pyrido[3,4-k][1,8,4]dioxazacyclododecine-3,9(2H,6H)-dione] |  |  |
|  | 10.5 nM | 257 nM | CCS(=O)(=O)Nc1ccc2c(c1)-c1cn(C)c(=O)cc1OCCNC(=O)c1cc(Cl)ccc1O2 [Example B-4, N-(11-chloro-2-methyl-3,9-dioxo-2,3,6,7,8,9-hexahydrodibenzo[f,i]pyrido[3,4-k][1,8,4]dioxazacyclododecin-17-yl)ethanesulfonamide] |  |  |
|  | 1.57 nM | 17.1 nM | CCS(=O)(=O)Nc1ccc2c(c1)-c1cn(C)c(=O)cc1OCCN(S(C)(=O)=O)Cc1cc(Cl)ccc1O2 [Example B-6, N-[11-chloro-2-methyl-8-(methylsulfonyl)-3-oxo-2,3,6,7,8,9-hexahydrodibenzo[f,i]pyrido[3,4-k][1,8,4]dioxazacyclododecin-17-yl]ethanesulfonamide] |  |  |
|  | 1.61 nM | 45.4 nM | CCS(=O)(=O)Nc1ccc2c(c1)-c1cn(C)c(=O)cc1OCCN(C(C)=O)Cc1cc(Cl)ccc1O2 [Example B-7, N-(8-acetyl-11-chloro-2-methyl-3-oxo-2,3,6,7,8,9-hexahydrodibenzo[f,i]pyrido[3,4-k][1,8,4]dioxazacyclododecin-17-yl)ethanesulfonamide] |  |  |
|  | 0.97 nM | 17 nM | CCOC(=O)N1CCOc2cc(=O)n(C)cc2-c2cc(NS(=O)(=O)CC)ccc2Oc2ccc(Cl)cc2C1 [Example B-8, ethyl 11-chloro-17-[(ethylsulfonyl)amino]-2-methyl-3-oxo-2,3,6,7-tetrahydrodibenzo[f,i]pyrido[3,4-k][1,8,4]dioxazacyclododecine-8(9H)-carboxylate] |  |  |
|  | 0.64 nM | 47.3 nM | CCNC(=O)N1CCOc2cc(=O)n(C)cc2-c2cc(NS(=O)(=O)CC)ccc2Oc2ccc(Cl)cc2C1 [Example B-9, 11-chloro-N-ethyl-17-[(ethylsulfonyl)amino]-2-methyl-3-oxo-2,3,6,7-tetrahydrodibenzo[f,i]pyrido[3,4-k][1,8,4]dioxazacyclododecine-8(9H)-carboxamide] |  |  |
|  | 1.24 nM | 29.7 nM | CCS(=O)(=O)Nc1ccc2c(c1)-c1cn(C)c(=O)cc1OCCN(C(=O)OC(C)(C)C)Cc1cc(Cl)ccc1O2 [Example B-10, tert-butyl 11-chloro-17-[(ethylsulfonyl)amino]-2-methyl-3-oxo-2,3,6,7-tetrahydrodibenzo[f,i]pyrido[3,4-k][1,8,4]dioxazacyclododecine-8(9H)-carboxylate] |  |  |
|  | 9.45 nM | 25.1 nM | CCS(=O)(=O)Nc1ccc2c(c1)-c1cn(C)c(=O)cc1OCCNCc1cc(Cl)ccc1O2 [Example B-11, N-(11-chloro-2-methyl-3-oxo-2,3,6,7,8,9-hexahydrodibenzo[f,i]pyrido[3,4-k][1,8,4]dioxazacyclododecin-17-yl)ethanesulfonamide] |  |  |
|  | 5.1 nM | 8.01 nM | CCS(=O)(=O)Nc1ccc2c(c1)-c1cn(C)c(=O)cc1OCCN(CC1CC1)Cc1cc(Cl)ccc1O2 [Example B-12, N-[11-chloro-8-(cyclopropylmethyl)-2-methyl-3-oxo-2,3,6,7,8,9-hexahydrodibenzo[f,i]pyrido[3,4-k][1,8,4]dioxazacyclododecin-17-yl]ethanesulfonamide] |  |  |
|  | 2.22 nM | 16.8 nM | CCS(=O)(=O)Nc1ccc2c(c1)-c1cn(C)c(=O)cc1OCCN(CCC(F)(F)F)Cc1cc(Cl)ccc1O2 [Example B-13, N-[11-chloro-2-methyl-3-oxo-8-(3,3,3-trifluoropropyl)-2,3,6,7,8,9-hexahydrodibenzo[f,i]pyrido[3,4-k][1,8,4]dioxazacyclododecin-17-yl]ethanesulfonamide] |  |  |
|  | 2.14 nM | 5.95 nM | CCS(=O)(=O)Nc1ccc2c(c1)-c1cn(C)c(=O)cc1OCCN(C1CCC1)Cc1cc(Cl)ccc1O2 [Example B-14, N-(11-chloro-8-cyclobutyl-2-methyl-3-oxo-2,3,6,7,8,9-hexahydrodibenzo[f,i]pyrido[3,4-k][1,8,4]dioxazacyclododecin-17-yl)ethanesulfonamide] |  |  |
|  | 1 nM | 153 nM | CCOC(=O)NS(=O)(=O)N1CCOc2cc(=O)n(C)cc2-c2cc(NS(=O)(=O)CC)ccc2Oc2ccc(Cl)cc2C1 [Example B-15, ethyl ({11-chloro-17-[(ethylsulfonyl)amino]-2-methyl-3-oxo-2,3,6,7-tetrahydrodibenzo[f,i]pyrido[3,4-k][1,8,4]dioxazacyclododecin-8(9H)-yl}sulfonyl)carbamate] |  |  |
|  | 1.28 nM | > 1000 nM | CCS(=O)(=O)Nc1ccc2c(c1)-c1cn(C)c(=O)cc1OCCN(S(=O)(=O)NC(C)=O)Cc1cc(Cl)ccc1O2 [Example B-16, N-({11-chloro-17-[(ethylsulfonyl)amino]-2-methyl-3-oxo-2,3,6,7-tetrahydrodibenzo[f,i]pyrido[3,4-k][1,8,4]dioxazacyclododecin-8(9H)-yl}sulfonyl)acetamide] |  |  |
|  | 7.7 nM | 30.9 nM | Cn1cc2c(cc1=O)OCCOCc1cc(Cl)ccc1Oc1ccc(CS(C)(=O)=O)cc1-2 [Example B-17, 11-chloro-2-methyl-17-((methylsulfonyl)methyl)-6,7-dihydro-2H-dibenzo[6,7:9,10][1,4,8]trioxacyclododecino[11,12-c]pyridin-3(9H)-one] |  |  |
|  | 10.7 nM | 6.7 nM | CCOC(=O)c1ccc2c(c1)-c1cn(C)c(=O)cc1OCCOCc1cc(Cl)ccc1O2 [Example B-17c, ethyl 11-chloro-2-methyl-3-oxo-3,6,7,9-tetrahydro-2H-dibenzo[6,7:9,10][1,4,8]trioxacyclododecino[11,12-c]pyridine-17-carboxylate] |  |  |

More lines, now with the values behind:

| Compound | EC50 ([1]; MX-1 cells) | Ki (BRD4 (BDI-BDII_K57-K550)) | EC50 ([1]; Homo sapiens, MX1, MX-1 cells) | Inhibition of LPS induced IL-6 production, % inhibition ([2]; CD1 mouse strain) | Inhibition of LPS induced IL-6 production, % inhibition ([2]; SCID mouse strain) |
| --- | --- | --- | --- | --- | --- |
| 17-(ethylsulfonyl)-11-fluoro-2-methyl-6,7,8,9-tetrahydrodibenzo[4,5:7,8][1,6]dioxacyclododecino[3,2-c]pyridin-3(2H)-one [Example A-22] | 9 nM | 1.51 nM |  | 83% |  |
| CCS(=O)(=O)c1ccc2c(c1)-c1cn(C)c(=O)cc1OCCCc1cc(Cl)ccc1O2 [Example A-3, 10-chloro-16-(ethylsulfonyl)-2-methyl-7,8-dihydro-2H-dibenzo[4,5:7,8][1,6]dioxacycloundecino[3,2-c]pyridin-3(6H)-one] |  | 7.54 nM | 31.1 nM |  | 78% |
| CCS(=O)(=O)Nc1ccc2c(c1)-c1cn(C)c(=O)cc1OCCCc1cc(Cl)ccc1O2 [Example A-5, N-(10-chloro-2-methyl-3-oxo-3,6,7,8-tetrahydro-2H-dibenzo[4,5:7,8][1,6]dioxacycloundecino[3,2-c]pyridin-16-yl)ethanesulfonamide] |  | 1.3 nM | 12.8 nM |  | 73% |
| CCS(=O)(=O)Nc1ccc2c(c1)-c1cn(C)c(=O)cc1OCCCc1cc(F)cc(F)c1O2 [Example A-6, N-(10,12-difluoro-2-methyl-3-oxo-3,6,7,8-tetrahydro-2H-dibenzo[4,5:7,8][1,6]dioxacycloundecino[3,2-c]pyridin-16-yl)ethanesulfonamide] |  | 1.51 nM | 9.6 nM | 86% |  |
| CCS(=O)(=O)Nc1ccc2c(c1)-c1cn(C)c(=O)cc1OCCCCc1cc(F)cc(F)c1O2 [Example A-14, N-(11,13-difluoro-2-methyl-3-oxo-2,3,6,7,8,9-hexahydrodibenzo[4,5:7,8][1,6]dioxacyclododecino[3,2-c]pyridin-17-yl)ethanesulfonamide] |  |  |  | 77% |  |
| CCS(=O)(=O)c1ccc2c(c1)-c1nn(C)c(=O)cc1OCCCCc1ccncc1O2 [Example A-59, 17-(ethylsulfonyl)-2-methyl-6,7,8,9-tetrahydrobenzo[4,5]pyrido[3′,4′:7,8][1,6]dioxacyclododecino[3,2-c]pyridazin-3(2H)-one] |  | 24.2 nM | 111 nM |  |  |
| CCS(=O)(=O)c1ccc2c(c1)-c1cn(C)c(=O)cc1OCCCCc1cccc(C)c1O2 [Example A-60, 17-(ethylsulfonyl)-2,13-dimethyl-6,7,8,9-tetrahydrodibenzo[4,5:7,8][1,6]dioxacyclododecino[3,2-c]pyridin-3(2H)-one] |  | 5.8 nM | 1.16 nM |  |  |
